Data on 4 compounds can be found in article PMC8071537.

A short description of data set [1]: Pharmacokinetics of oral TPT in rats with zosuquidar and/or Ko143 (Table S2). The conditions noted are these: TPT 20 mg/kg PO + Ko143 10 mg/kg.
Experimental: In the modified Taxol® formulation, TPT was prepared at a concentration of 2 mg/mL
TPT was also dissolved in isotonic saline at a concentration of
Tween® 80 was dissolved in
Oral Administration and Plasma Sampling
claims in published maps and institu-for the oral administration of TPT (20 mg/kg) with or without zosuquidar (25 mg/kg),
formulation. After drug administration, blood sampling was performed at 0, 0.05, 0.12,
The SD rats (male, 7‒8-weeks old, 235‒265 g) were divided into four groups (n = 6‒
Blood sampling was done at 0, 0.033, 0.083,
Pheonix WinNonlin ® software (version 8.0–8.1, Pharsight Corporation, Mountain
View, CA, USA) was used to estimate the PK parameters following oral TP T administra-
tion in rats. Non-compartmental analysis was performed using the plasma TPT concen-
tration–time profiles to obtain the following PK parameters: initial plasma concentration
(C0), area under the plasma concentration–time curve from zero to infinity (AUCINF), elim-
ination half-life (t1/2), apparent volume of distribution (Vd) after oral administration (Vd/F),
total clearance (Clt), and total oral clearance (Clt/F). The maximum plasma concentration
(Cmax) and the time required to reach Cmax (Tmax) were directly determined from the plasma
TPT concentration–time curve. The absolute BA (AB) and the relative BA (RB) of TPT were
The subject of data set [2] is CYP1A2, CYP2A6, CYP2C8/9, CYP2C19, CYP2D6, CYP2E, CYP3A, or CYP4A. The arrangement: method as in earlier work. Particulars: According to GlaxoSmithKline; cited from earlier work.
The next data set is described as follows: in vivo. The conditions noted are these: male, Sprague-Dawley, rat, po, 20 mg/kg.
Details of data set [3]: method as in PMID 8853931. Particulars: lactone moiety converted to carboxylated open-ring form; cited from earlier work.
A short description of data set [4]: Pharmacokinetics of oral TPT in rats with or without dual inhibitor candidates or formulation. Particulars: male, Sprague-Dawley, rat, in vivo, 20 mg/kg.
Experimental: (§1) For PK studies, the carotid artery in healthy SD rats (male, 7‒8 weeks, 220‒298 g) was catheterized one day before drug administration [29, 30, 31, 32]. Four to six rats were grouped for the oral administration of TPT (20 mg/kg) with or without compounds (2 mg/kg) in the modified Taxol® formulation and the same dose of TPT in saline only.
(§2) The samples were chromatographically separated using a Capcell Pak C18 UG120 column (4.6 mm × 250 mm, 5 μm, Osaka Soda Co. Ltd., Osaka, Japan) with the mobile phase composed of 10 mM phosphate buffer containing 1% triethylamine (TEA) (pH 3.5) and methanol containing 1% TEA (pH 6.5) (56/44, v/v) at a flow rate of 1.0 mL/min for 30 min and detected at an excitation wavelength of 381 nm and an emission wavelength of 527 nm. The injection volume was 50 μL.
(§3) Pheonix WinNonlin® software (version 8.1, Pharsight Corporation, Mountain View, CA, USA) was used to estimate the PK parameters following oral TPT administration to rats. Non-compartmental analysis was performed using the plasma TPT concentration–time profiles to obtain the following PK parameters: area under the plasma concentration–time curve from zero to infinity (AUCINF), elimination half-life (t1/2), apparent volume of distribution after oral administration (Vd/F), and total oral clearance (Clt/F). The maximum plasma concentration (Cmax) and the time required to reach Cmax (Tmax) were directly measured from the plasma TPT concentration–time curve. The relative BA (RB) of TPT was calculated using the Equation (1):RB (%) = (AUCINF po co-administration)/(AUCINF po control) × 100(1)
Details of data set [5]: method as in PMID 8853931. Particulars: humans; cited from earlier work.
Data set [6] concerns the target T1, P-gp (Homo sapiens, UniProt P08183). The conditions noted are these: 10 μM DNR, 30 min, vs DNR-only control; zosuquidar 1 μM.
Experimental: In this study, the cells were treated with TPT or DNR after incubation with the P-gp and/or BCRP inhibitor candidates or with the excipients for 5 min. When the incubation was complete, the medium containing the substrate and inhibitor candidate or excipient was removed, and the cells were resuspended in cold phosphate buffer saline (PBS) (500 μL). […] The mean fluorescence intensity values were calculated, and at least three independent biological duplicates were performed.
Substrate Drug Accumulation Study by Flow Cytometry
N.Y.; Sivaraman, A.; Naik, R.; Jin, μL) with 10 μM DNR in the presence and/or absence of 1 μM zosuquidar for 30 min or
TPT accumulation in cells resuspended in cold PBS
In data set [7] the target is T1, P-gp. Put plainly: TPT accumulation by flow cytometry in P-gp-overexpressing MCF-7/ADR cells. The conditions noted are these: 200 μM TPT, 30 min, vs TPT-only; zosuquidar/Ko143 1 μM. On the procedure:
In this study, the cells were treated with TPT or DNR after incubation with the P-gp and/or BCRP inhibitor candidates or with the excipients for 5 min. When the incubation was complete, the medium containing the substrate and inhibitor candidate or excipient was removed, and the cells were resuspended in cold phosphate buffer saline (PBS) (500 μL). TPT accumulation in the cells was measured using a flow cytometer (NovoCyte 2060R, ACEA Biosciences Inc., San Diego, CA, USA). The mean fluorescence intensity values were calculated, and at least three independent biological duplicates were performed.

The conditions of data set [8]: in vivo, 10 mg/kg; cited from earlier work.

Where two headings read alike, the source gives them in different places.

T1 sequence (P08183 whole entry): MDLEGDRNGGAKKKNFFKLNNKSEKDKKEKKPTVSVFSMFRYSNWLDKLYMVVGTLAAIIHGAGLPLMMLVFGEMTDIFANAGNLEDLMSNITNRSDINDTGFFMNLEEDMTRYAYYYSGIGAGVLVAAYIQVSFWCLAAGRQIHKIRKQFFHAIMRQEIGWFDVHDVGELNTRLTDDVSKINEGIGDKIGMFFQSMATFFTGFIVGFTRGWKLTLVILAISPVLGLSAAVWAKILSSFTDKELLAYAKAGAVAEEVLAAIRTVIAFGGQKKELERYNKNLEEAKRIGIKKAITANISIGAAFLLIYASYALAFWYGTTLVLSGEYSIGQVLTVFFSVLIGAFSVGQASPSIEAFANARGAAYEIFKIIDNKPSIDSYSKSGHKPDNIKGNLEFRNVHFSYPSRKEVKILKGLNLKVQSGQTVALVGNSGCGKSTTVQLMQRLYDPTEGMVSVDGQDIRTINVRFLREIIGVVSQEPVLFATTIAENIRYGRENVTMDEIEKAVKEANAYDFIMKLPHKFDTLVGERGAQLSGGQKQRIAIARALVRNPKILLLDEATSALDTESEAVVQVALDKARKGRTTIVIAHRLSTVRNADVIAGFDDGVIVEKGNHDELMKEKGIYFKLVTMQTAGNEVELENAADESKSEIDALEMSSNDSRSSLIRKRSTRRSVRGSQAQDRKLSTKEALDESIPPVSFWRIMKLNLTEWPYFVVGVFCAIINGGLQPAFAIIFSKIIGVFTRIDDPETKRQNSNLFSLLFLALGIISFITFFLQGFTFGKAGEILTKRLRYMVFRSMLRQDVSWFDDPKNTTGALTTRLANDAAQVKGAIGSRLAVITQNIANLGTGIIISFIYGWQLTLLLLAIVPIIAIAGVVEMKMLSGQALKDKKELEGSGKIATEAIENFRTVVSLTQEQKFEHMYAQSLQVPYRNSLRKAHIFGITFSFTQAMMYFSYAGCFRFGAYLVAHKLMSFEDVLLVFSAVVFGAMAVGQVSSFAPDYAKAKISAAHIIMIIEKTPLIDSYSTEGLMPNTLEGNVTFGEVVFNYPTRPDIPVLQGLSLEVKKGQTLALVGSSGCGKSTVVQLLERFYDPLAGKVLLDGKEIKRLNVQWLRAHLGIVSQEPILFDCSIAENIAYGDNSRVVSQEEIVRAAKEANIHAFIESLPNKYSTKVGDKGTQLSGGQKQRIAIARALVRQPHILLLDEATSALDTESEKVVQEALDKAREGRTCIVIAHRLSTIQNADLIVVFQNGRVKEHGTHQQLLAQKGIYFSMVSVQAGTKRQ
Experimental for in vivo: as §1, §2, §3

Consider `COc1ccc2c3c([nH]c2c1)[C@H](CC(C)C)N1C(=O)[C@H](CCC(=O)OC(C)(C)C)NC(=O)[C@@H]1C3` [Ko143], for which, in data set [1], the “enhanced absorption of TPT” value is “>two-fold”.

On to `CC[C@@]1(O)C(=O)OCc2c1cc1n(c2=O)Cc2cc3c(CN(C)C)c(O)ccc3nc2-1` [TPT, Topotecan], for which the “in vitro activity of CYP1A2, CYP2A6, CYP2C8/9, CYP2C19, CYP2D6, CYP2E, CYP3A, or CYP4A” value in data set [2] is recorded as “does not alter”. For the same compound, in “in vivo”, the AUC(0-inf) is 2360 ± 543 ng·h/mL, the Cmax worked out at 727 ± 265 ng/mL and the Tmax lay in the range of 0.5 to 1 h. The “stability under physiological pH” value in data set [3] was “unstable”. Also, in data set [4], the Vd/F was 42.1 ± 14.1 L and the half-life was 3.39 ± 1.09 h. For the same compound, in data set [5], the half-life is given as 3 h, the “hepatic metabolism: amount of N-desmethyl TPT (of the total amount)” value is recorded as under 7%, the “oral BA of active TPT” value is “approximately 35%” and the “renal excretion (of the total administered dose)” value is on record as “approximately 40%”.

For `O[C@@H](COc1cccc2ncccc12)CN1CCN([C@@H]2c3ccccc3[C@@H]3[C@H](c4ccccc42)C3(F)F)CC1` [zosuquidar, Zosuquidar], the “increase in DNR accumulation in P-gp-overexpressing cells” value on P-gp [6] is given as “approximately three-fold increase”. Further, on P-gp [7], the “TPT accumulation in ADR cells” value is reported as “no significant difference”.

With silymarin, in [8], the “Vd/F and Clt/F of PTX” value was “decreased”.

What is called AUC(0-inf) is the area under the concentration-time curve extrapolated to infinity. A low value points to less exposure. Usually Cmax stands for the highest concentration seen after dosing. The Tmax is the time from dosing to the highest level. By Vd/F is commonly meant the volume of distribution divided by bioavailability. A word on the half-life: it is how long it takes for the measured level to halve.
